Measured values taken from PMC7492691 (2020).

How the values were obtained:
[1] = system: poly(rA)–poly(rU) (RNA, polymer) A/U; assay: UV thermal denaturation, 260 nm; details: Na+ (sodium cacodylate, I = 0.05 M); pH 5; r = [4]/[polynucleotide] = 0.2; per base
[2] = system: poly(rA)–poly(rU) (RNA, polymer) A/U; assay: ITC, single set of sites fit; details: Na+ (sodium cacodylate, I = 0.05 M); pH 5, 25 °C; polynucleotide concentration in phosphates; per base
[3] = system: poly(dA)–poly(dT) (DNA, polymer) A/T; assay: UV-vis titration, Scatchard fit; details: Na+ (sodium cacodylate, I = 0.05 M); pH 5, 25 °C; n fixed at 0.2; polynucleotide concentration in phosphates; per base
[4] = system: poly(dGdC)2 (DNA, polymer) GC; assay: UV-vis titration, Scatchard fit; details: Na+ (sodium cacodylate, I = 0.05 M); pH 5, 25 °C; n fixed at 0.2; polynucleotide concentration in phosphates; per base
[5] = system: poly(dAdT)2 (DNA, polymer) AT; assay: UV-vis titration, Scatchard fit; details: Na+ (sodium cacodylate, I = 0.05 M); pH 5, 25 °C; n fixed at 0.2; polynucleotide concentration in phosphates; per base
[6] = system: poly(dAdT)2 (DNA, polymer) AT; assay: UV thermal denaturation, 260 nm; details: Na+ (sodium cacodylate, I = 0.05 M); pH 5; r = [4]/[polynucleotide] = 0.1; per base
[7] = system: poly(dA)–poly(dT) (DNA, polymer) A/T; assay: UV thermal denaturation, 260 nm; details: Na+ (sodium cacodylate, I = 0.05 M); pH 5; r = [4]/[polynucleotide] = 0.1; per base
[8] = system: poly(dAdT)2 (DNA, polymer) AT; assay: ITC, two sets of sites fit; details: Na+ (sodium cacodylate, I = 0.05 M); pH 5, 25 °C; site 1 of 2; polynucleotide concentration in phosphates; per base
[9] = system: poly(rA)–poly(rU) (RNA, polymer) A/U; assay: UV-vis titration, Scatchard fit; details: Na+ (sodium cacodylate, I = 0.05 M); pH 7, 25 °C; n fixed at 0.2; concentration in phosphates; log Ka 6.0 at pH 5; per base

∆Tm [1]: 6.8 ± 0.5 °C | log Ka1 [2]: 6.9 | log Ka [3]: 6.4 | log Ka [4]: 7.2 | log Ka [5]: 5.8 | ∆Tm [6]: 10.0 ± 0.5 °C | ∆Tm [7]: 10.5 ± 0.5 °C | log Ka1 [8]: 6.7 | log Ka [9]: 4.5
Structure (SMILES): N=C(N)NC(=O)c1ccc(C(=O)NCCCC[C@H](N)C(=O)NCCN2C(=O)c3ccc4c5c(ccc(c35)C2=O)C(=O)N(CCNC(=O)[C@@H](N)CCCCNC(=O)c2ccc(C(=O)NC(=N)N)[nH]2)C4=O)[nH]1
